Test results reported in PubChem BioAssay AID180 (DTP/NCI, 2004).
“And” between values parts separate entries of the source, which are not always exact repeats. Identical values can stand only once.

Tested on: BDF1 mice, Adenocarcinoma 755 s.c., tumor weight T/C
Assay: NCI In Vivo Anticancer Drug Screen. Data for tumor model Adenocarcinoma 755 (subcutaneous) in B6D2F1 (BDF1) mice
Conditions: endpoint: mean tumor weight, higher = larger tumour
Outline: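 Transplantable tumor implanted; mice dosed with compound or vehicle; survival or tumor size recorded; ratio of treated to vehicle control reported.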

[1] = dose: 125.0 mg/kg/injection, schedule: Q01DX011 (ip), vehicle: carboxymethylcellulose (CMC)
[2] = dose: 250.0 mg/kg/injection, schedule: Q01DX011 (ip), vehicle: carboxymethylcellulose (CMC)
[3] = dose: 500.0 mg/kg/injection, schedule: Q01DX011 (ip), vehicle: carboxymethylcellulose (CMC)
[4] = dose: 30.0 mg/kg/injection, schedule: Q01DX011 (ip), vehicle: carboxymethylcellulose (CMC)
[5] = dose: 60.0 mg/kg/injection, schedule: Q01DX011 (ip), vehicle: carboxymethylcellulose (CMC)
[6] = dose: 120.0 mg/kg/injection, schedule: Q01DX011 (ip), vehicle: carboxymethylcellulose (CMC)
[7] = dose: 240.0 mg/kg/injection, schedule: Q01DX011 (ip), vehicle: carboxymethylcellulose (CMC)
[8] = dose: 25.0 mg/kg/injection, schedule: Q01DX011 (ip), vehicle: saline
[9] = dose: 31.0 mg/kg/injection, schedule: Q01DX011 (ip), vehicle: methylcellulose (MC)
[10] = dose: 62.0 mg/kg/injection, schedule: Q01DX011 (ip), vehicle: methylcellulose (MC)
[11] = dose: 125.0 mg/kg/injection, schedule: Q01DX011 (ip), vehicle: methylcellulose (MC)
[12] = dose: 25.0 mg/kg/injection, schedule: Q01DX011 (ip), vehicle: methylcellulose (MC)
[13] = dose: 225.0 mg/kg/injection, schedule: Q01DX011 (ip), vehicle: methylcellulose (MC)

`O=c1cn[nH]c(=O)[nH]1` was tested, and the T/C (dose: 110.1 mg/kg/injection, schedule: Q01DX011 (ip), vehicle: carboxymethylcellulose (CMC)) was 104 % of control, the T/C [1] was 66 % of control and the T/C (dose: 220.2 mg/kg/injection, schedule: Q01DX011 (ip), vehicle: carboxymethylcellulose (CMC)) was 80 % of control. The T/C [2] was 107 % of control, the T/C (dose: 440.4 mg/kg/injection, schedule: Q01DX011 (ip), vehicle: carboxymethylcellulose (CMC)) was 84 % of control and the T/C [3] was 87 % of control. The T/C (dose: 880.8 mg/kg/injection, schedule: Q01DX011 (ip), vehicle: carboxymethylcellulose (CMC)) was 77 % of control and the T/C (dose: 1000.0 mg/kg/injection, schedule: Q01DX011 (ip), vehicle: carboxymethylcellulose (CMC)) was 80 % of control.

In the case of `CCN(CC)CCCC(C)Nc1c2ccc(Cl)cc2nc2ccc(OC)cc12` (configuration not stated), the T/C (dose: 25.0 mg/kg/injection, schedule: Q01DX011 (ip), vehicle: carboxymethylcellulose (CMC)) was 68 % of control, the T/C (dose: 50.0 mg/kg/injection, schedule: Q01DX011 (ip), vehicle: carboxymethylcellulose (CMC)) was 62 % of control and the T/C (dose: 100.0 mg/kg/injection, schedule: Q01DX011 (ip), vehicle: carboxymethylcellulose (CMC)) was 52 % of control.

For `CCCNS(=O)(=O)c1ncnc2nc[nH]c12`, the T/C (dose: 9.0 mg/kg/injection, schedule: Q01DX011 (ip), vehicle: carboxymethylcellulose (CMC)) was 52 % of control, the T/C (dose: 18.0 mg/kg/injection, schedule: Q01DX011 (ip), vehicle: carboxymethylcellulose (CMC)) was 17 % of control and the T/C (dose: 37.0 mg/kg/injection, schedule: Q01DX011 (ip), vehicle: carboxymethylcellulose (CMC)) was 3 % of control.

`O=P(N1CCCCCC1)(N1CC1)N1CC1` was tested, and the T/C (dose: 1.0 mg/kg/injection, schedule: Q01DX011 (ip), vehicle: methylcellulose (MC)) was 95 % of control, the T/C (dose: 2.0 mg/kg/injection, schedule: Q01DX011 (ip), vehicle: methylcellulose (MC)) was 68 % of control and the T/C (dose: 4.0 mg/kg/injection, schedule: Q01DX011 (ip), vehicle: methylcellulose (MC)) was 48 % of control. The T/C (dose: 8.0 mg/kg/injection, schedule: Q01DX011 (ip), vehicle: methylcellulose (MC)) was 28 % of control.

`CC(=O)OCC1OC(n2cnc3c(Cl)nc(N)nc32)C(OC(C)=O)C1OC(C)=O` (configuration not stated) was tested, and the T/C [4] was 114 % of control, the T/C [5] was 118 % of control and the T/C [6] was 78 % of control. For the same compound, the T/C [7] was 72 % of control.

For `N#CCCn1cnc2c(=S)nc[nH]c21`, the T/C (dose: 14.0 mg/kg/injection, schedule: Q01DX011 (ip), vehicle: other) was 89 % of control.

For `CCCCCSc1nc(N)nc2nc[nH]c12`, the T/C (dose: 0.04 mg/kg/injection, schedule: Q01DX011 (ip), vehicle: alkali diluted with saline) was 114 % of control, the T/C (dose: 0.08 mg/kg/injection, schedule: Q01DX011 (ip), vehicle: alkali diluted with saline) was 119 % of control and the T/C (dose: 0.16 mg/kg/injection, schedule: Q01DX011 (ip), vehicle: alkali diluted with saline) was 95 % of control. For the same compound, the T/C (dose: 0.32 mg/kg/injection, schedule: Q01DX011 (ip), vehicle: alkali diluted with saline) was 80 % of control, the T/C (dose: 0.63 mg/kg/injection, schedule: Q01DX011 (ip), vehicle: alkali diluted with saline) was 112 % of control and the T/C (dose: 1.25 mg/kg/injection, schedule: Q01DX011 (ip), vehicle: alkali diluted with saline) was 97 % of control. For the same compound, the T/C (dose: 1.5 mg/kg/injection, schedule: Q01DX011 (ip), vehicle: saline) was 79 % of control, the T/C (dose: 2.5 mg/kg/injection, schedule: Q01DX011 (ip), vehicle: alkali diluted with saline) was 85 % of control and the T/C (dose: 3.1 mg/kg/injection, schedule: Q01DX011 (ip), vehicle: saline) was 100 % of control. For the same compound, the T/C (dose: 5.0 mg/kg/injection, schedule: Q01DX011 (ip), vehicle: alkali diluted with saline) was 106 % of control, the T/C (dose: 6.25 mg/kg/injection, schedule: Q01DX011 (ip), vehicle: saline) was 83 % of control and the T/C (dose: 10.0 mg/kg/injection, schedule: Q01DX011 (ip), vehicle: alkali diluted with saline) was 82 % of control. The T/C (dose: 12.5 mg/kg/injection, schedule: Q01DX011 (ip), vehicle: saline) was 43 % of control, the T/C [8] was 47 % of control and the T/C (dose: 50.0 mg/kg/injection, schedule: Q01DX011 (ip), vehicle: saline) was 7 % of control. The T/C (dose: 100.0 mg/kg/injection, schedule: Q01DX011 (ip), vehicle: saline) was 3 % of control.

In the case of `Nc1nc(Cl)c2[nH]cnc2n1`, the T/C [9] was 60 % of control, the T/C [10] was 13 % of control and the T/C [11] was 4 % of control.

In the case of `O=C(Nc1ccc([N+](=O)[O-])cc1)Nc1ccc([N+](=O)[O-])cc1` (tested in a mixture with another compound), the T/C (dose: 175.0 mg/kg/injection, schedule: Q01DX011 (ip), vehicle: methylcellulose (MC)) was 57 % of control and 72 % of control and the T/C (dose: 500.0 mg/kg/injection, schedule: Q01DX011 (ip), vehicle: methylcellulose (MC)) was 27 % of control and 45 % of control.

With `CC1CCc2ccccc2N1C(=O)CCCl` (configuration not stated) the T/C [12] was 48 % of control, the T/C (dose: 75.0 mg/kg/injection, schedule: Q01DX011 (ip), vehicle: methylcellulose (MC)) was 82 % of control and the T/C [13] was 50 % of control.

For `O=C(Nc1ccc(N=Nc2ccc(O)c(C(=O)O)c2)cc1)c1ccc(C(=O)Nc2ccc(N=Nc3ccc(O)c(C(=O)O)c3)cc2)cc1`, the T/C [4] was 92 % of control, the T/C [5] was 75 % of control and the T/C [6] was 102 % of control. For the same compound, the T/C [7] was 98 % of control.

With `C/C(=N\NC(=O)c1ccncc1)c1cccc(Br)c1` the T/C (dose: 0.9 mg/kg/injection, schedule: Q01DX011 (ip), vehicle: carboxymethylcellulose (CMC)) was 116 % of control, the T/C (dose: 3.7 mg/kg/injection, schedule: Q01DX011 (ip), vehicle: carboxymethylcellulose (CMC)) was 154 % of control and the T/C (dose: 7.5 mg/kg/injection, schedule: Q01DX011 (ip), vehicle: methylcellulose (MC)) was 34 % of control and 57 % of control. For the same compound, the T/C (dose: 15.0 mg/kg/injection, schedule: Q01DX011 (ip), vehicle: methylcellulose (MC)) was 65 % of control and 87 % of control.

For `CCCCn1nnc2c(N)nc(N)nc21`, the T/C [10] was 123 % of control, the T/C [11] was 70 % of control and the T/C [13] was 56 % of control.

`CS(=O)(=O)OCC1OC(OCc2ccccc2)CC1O` (configuration not stated) was tested, and the T/C [8] was 102 % of control.

For `CCCCCCCCn1cnc2c(=S)nc[nH]c21`, the T/C [1] was 84 % of control, the T/C [2] was 67 % of control and the T/C [3] was 102 % of control.

With `CCOC(=O)C(Cc1ccc(N(CCCl)CCCl)cc1)NP1(=O)NCCCO1` (configuration not stated) the T/C (dose: 36.0 mg/kg/injection, schedule: Q01DX011 (ip), vehicle: saline) was 21 % of control.

In the case of `C[C@]12CC[C@H](O)C[C@@H]1CC[C@@H]1[C@@H]2C(=O)C[C@]2(C)C3=CC(=O)O[C@H]3C[C@@H]12`, the T/C (dose: 5.0 mg/kg/injection, schedule: Q01DX011 (sc), vehicle: steriod suspending solution) was 73 % of control, the T/C (dose: 10.0 mg/kg/injection, schedule: Q01DX011 (sc), vehicle: steriod suspending solution) was 69 % of control and the T/C (dose: 20.0 mg/kg/injection, schedule: Q01DX011 (sc), vehicle: steriod suspending solution) was 74 % of control. The T/C (dose: 40.0 mg/kg/injection, schedule: Q01DX011 (sc), vehicle: steriod suspending solution) was 77 % of control.

In the case of `Nc1nc(=S)c2ncn(C3OC(COC(=O)c4ccccc4)C(OC(=O)c4ccccc4)C3OC(=O)c3ccccc3)c2[nH]1` (configuration not stated), the T/C (dose: 12.5 mg/kg/injection, schedule: Q01DX011 (ip), vehicle: methylcellulose (MC)) was 52 % of control, the T/C [12] was 49 % of control and the T/C (dose: 50.0 mg/kg/injection, schedule: Q01DX011 (ip), vehicle: methylcellulose (MC)) was 7 % of control. The T/C (dose: 100.0 mg/kg/injection, schedule: Q01DX011 (ip), vehicle: methylcellulose (MC)) was 3 % of control.

With `C(=N\OCCc1ccccc1)/c1cccnc1` the T/C (dose: 88.0 mg/kg/injection, schedule: Q01DX011 (ip), vehicle: methylcellulose (MC)) was 70 % of control.

`Nc1nc2c(ccn2Cc2ccccc2)c(=O)[nH]1` was tested, and the T/C [4] was 92 % of control and the T/C [6] was 106 % of control.

`CCc1c(Cl)nc(N)nc1Nc1ccc(Br)cc1` was tested, and the T/C [9] was 118 % of control, the T/C [10] was 105 % of control and the T/C [11] was 106 % of control. The T/C (dose: 250.0 mg/kg/injection, schedule: Q01DX011 (ip), vehicle: methylcellulose (MC)) was 116 % of control.

For `O=C(O)c1[nH]c(=O)[nH]c(=O)c1F`, the T/C (dose: 1.5 mg/kg/injection, schedule: Q01DX011 (ip), vehicle: other) was 53 % of control, the T/C (dose: 3.0 mg/kg/injection, schedule: Q01DX011 (ip), vehicle: other) was 79 % of control and the T/C (dose: 6.0 mg/kg/injection, schedule: Q01DX011 (ip), vehicle: other) was 37 % of control. The T/C (dose: 12.0 mg/kg/injection, schedule: Q01DX011 (ip), vehicle: other) was 10 % of control.
